Measurements reported in ChEMBL document CHEMBL3397009, “Synthesis and biological evaluation of aryl isoxazole derivatives as metabotropic glutamate receptor 1 antagonists: a potential treatment for neuropathic pain” (Bioorg Med Chem Lett, 2015).
Active and inactive are the calls of the source.

How the values were obtained:
[1] = molecular target: Metabotropic glutamate receptor 1 (Homo sapiens) (UniProt Q13255); assay: Antagonist activity against human mGluR1 expressed in HEK cells assessed as inhibition of L-glutamate-induced intracellular calcium levels at 10 uM after 18 hrs; assay type: functional, cell-based; conditions: HEK293
Chain of Metabotropic glutamate receptor 1 (Homo sapiens) (Q13255 19-1194 limits assumed): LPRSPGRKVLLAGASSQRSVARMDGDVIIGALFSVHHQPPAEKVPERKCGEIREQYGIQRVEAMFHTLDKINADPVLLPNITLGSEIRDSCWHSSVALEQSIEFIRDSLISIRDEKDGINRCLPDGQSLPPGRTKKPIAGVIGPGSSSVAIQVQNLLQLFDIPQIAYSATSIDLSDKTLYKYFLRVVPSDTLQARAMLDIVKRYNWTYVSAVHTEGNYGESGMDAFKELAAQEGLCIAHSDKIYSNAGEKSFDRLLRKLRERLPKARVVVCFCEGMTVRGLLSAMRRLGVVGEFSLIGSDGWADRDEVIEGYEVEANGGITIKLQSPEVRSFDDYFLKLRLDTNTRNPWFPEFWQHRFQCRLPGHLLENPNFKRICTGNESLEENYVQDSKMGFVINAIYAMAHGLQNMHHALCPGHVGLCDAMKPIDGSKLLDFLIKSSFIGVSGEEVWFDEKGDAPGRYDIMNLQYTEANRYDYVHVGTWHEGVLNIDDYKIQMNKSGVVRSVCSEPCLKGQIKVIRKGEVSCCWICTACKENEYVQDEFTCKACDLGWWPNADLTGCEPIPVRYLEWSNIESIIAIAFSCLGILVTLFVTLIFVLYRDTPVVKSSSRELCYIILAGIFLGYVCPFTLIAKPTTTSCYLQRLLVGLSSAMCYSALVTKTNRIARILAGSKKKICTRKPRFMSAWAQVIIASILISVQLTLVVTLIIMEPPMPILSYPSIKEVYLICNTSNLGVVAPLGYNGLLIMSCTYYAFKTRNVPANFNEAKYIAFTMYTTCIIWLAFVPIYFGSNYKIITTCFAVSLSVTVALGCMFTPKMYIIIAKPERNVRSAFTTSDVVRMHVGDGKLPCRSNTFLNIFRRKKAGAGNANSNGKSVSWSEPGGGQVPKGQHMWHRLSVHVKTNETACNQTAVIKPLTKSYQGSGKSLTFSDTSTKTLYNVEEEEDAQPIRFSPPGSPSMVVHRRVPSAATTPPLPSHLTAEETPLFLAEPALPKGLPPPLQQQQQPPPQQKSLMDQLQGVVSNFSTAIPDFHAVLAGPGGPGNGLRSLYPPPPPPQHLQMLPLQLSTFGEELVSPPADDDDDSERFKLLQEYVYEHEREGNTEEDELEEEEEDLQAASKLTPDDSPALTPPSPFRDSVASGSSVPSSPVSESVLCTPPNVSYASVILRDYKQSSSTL

[2] = molecular target: Metabotropic glutamate receptor 1 (Homo sapiens) (UniProt Q13255); assay: Antagonist activity against human mGluR1 expressed in HEK cells assessed as inhibition of L-glutamate-induced intracellular calcium levels at 1 uM after 18 hrs; assay type: functional, cell-based; conditions: HEK293
[3] = molecular target: Metabotropic glutamate receptor 5 (Homo sapiens) (UniProt P41594); assay: Antagonist activity against human mGluR5 expressed in HEK cells assessed as inhibition of L-glutamate-induced intracellular calcium levels at 10 uM after 18 hrs; assay type: functional, cell-based; conditions: HEK293
Chain of Metabotropic glutamate receptor 5 (Homo sapiens) (P41594 21-1212 limits assumed): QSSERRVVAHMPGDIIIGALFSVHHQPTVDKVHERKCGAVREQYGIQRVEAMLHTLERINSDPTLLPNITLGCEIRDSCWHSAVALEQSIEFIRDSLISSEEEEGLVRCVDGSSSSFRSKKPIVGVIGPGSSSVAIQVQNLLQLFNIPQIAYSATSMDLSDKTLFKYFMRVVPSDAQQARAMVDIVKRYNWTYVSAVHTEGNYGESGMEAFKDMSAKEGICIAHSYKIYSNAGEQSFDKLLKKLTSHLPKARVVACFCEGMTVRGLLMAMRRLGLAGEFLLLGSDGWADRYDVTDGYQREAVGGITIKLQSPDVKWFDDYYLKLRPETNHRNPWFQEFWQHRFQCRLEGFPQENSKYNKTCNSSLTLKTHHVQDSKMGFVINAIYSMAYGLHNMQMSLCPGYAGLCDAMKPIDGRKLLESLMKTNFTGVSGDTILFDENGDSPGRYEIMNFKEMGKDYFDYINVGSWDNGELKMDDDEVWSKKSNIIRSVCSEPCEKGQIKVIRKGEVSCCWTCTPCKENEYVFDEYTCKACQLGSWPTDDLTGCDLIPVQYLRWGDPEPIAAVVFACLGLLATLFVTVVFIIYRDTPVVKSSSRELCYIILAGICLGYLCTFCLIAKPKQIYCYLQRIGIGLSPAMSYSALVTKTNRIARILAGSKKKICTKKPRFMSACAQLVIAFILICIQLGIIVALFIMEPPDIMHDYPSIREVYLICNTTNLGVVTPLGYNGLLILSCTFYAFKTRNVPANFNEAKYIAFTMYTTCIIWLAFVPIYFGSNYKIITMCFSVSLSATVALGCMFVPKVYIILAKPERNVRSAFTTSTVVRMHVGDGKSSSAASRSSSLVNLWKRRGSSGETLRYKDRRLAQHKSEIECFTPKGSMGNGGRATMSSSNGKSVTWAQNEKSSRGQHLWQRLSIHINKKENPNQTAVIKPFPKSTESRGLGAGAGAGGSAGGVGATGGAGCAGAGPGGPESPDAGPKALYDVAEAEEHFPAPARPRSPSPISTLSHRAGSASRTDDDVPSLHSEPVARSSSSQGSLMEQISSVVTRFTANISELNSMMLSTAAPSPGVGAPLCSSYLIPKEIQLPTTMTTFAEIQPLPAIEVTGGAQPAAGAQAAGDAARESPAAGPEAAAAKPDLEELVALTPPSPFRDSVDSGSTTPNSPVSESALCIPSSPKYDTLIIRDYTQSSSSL

[4] = molecular target: Metabotropic glutamate receptor 5 (Homo sapiens) (UniProt P41594); assay: Antagonist activity against human mGluR5 expressed in HEK cells assessed as inhibition of L-glutamate-induced intracellular calcium levels at 1 uM after 18 hrs; assay type: functional, cell-based; conditions: HEK293
[5] = test system: Rattus norvegicus; assay: Analgesic activity in rat model of spinal nerve ligation-induced neuropathic pain assessed as reduction in cold allodynia by measuring paw withdrawal in response to acetone application at 100 mg/kg, po administered on day 14 after ligation surgery and measured 3 hrs post dose; assay type: functional, organism-based; parameters: dose 100 mg/kg
[6] = test system: Rattus norvegicus; assay: Analgesic activity in rat model of spinal nerve ligation-induced neuropathic pain assessed as reduction in mechanical threshold for paw withdrawal at 100 mg/kg, po administered on day 14 after ligation surgery and measured 3 hrs post dose by Von Frey filaments based method; assay type: functional, organism-based; parameters: dose 100 mg/kg
[7] = molecular target: CYP2D6 (Homo sapiens, UniProt P10635); assay: Inhibition of CYP2D6 (unknown origin) assessed as remaining enzyme activity at 10 uM; assay type: ADME; conditions: read-out: Activity
Chain of CYP2D6 (P10635 whole entry): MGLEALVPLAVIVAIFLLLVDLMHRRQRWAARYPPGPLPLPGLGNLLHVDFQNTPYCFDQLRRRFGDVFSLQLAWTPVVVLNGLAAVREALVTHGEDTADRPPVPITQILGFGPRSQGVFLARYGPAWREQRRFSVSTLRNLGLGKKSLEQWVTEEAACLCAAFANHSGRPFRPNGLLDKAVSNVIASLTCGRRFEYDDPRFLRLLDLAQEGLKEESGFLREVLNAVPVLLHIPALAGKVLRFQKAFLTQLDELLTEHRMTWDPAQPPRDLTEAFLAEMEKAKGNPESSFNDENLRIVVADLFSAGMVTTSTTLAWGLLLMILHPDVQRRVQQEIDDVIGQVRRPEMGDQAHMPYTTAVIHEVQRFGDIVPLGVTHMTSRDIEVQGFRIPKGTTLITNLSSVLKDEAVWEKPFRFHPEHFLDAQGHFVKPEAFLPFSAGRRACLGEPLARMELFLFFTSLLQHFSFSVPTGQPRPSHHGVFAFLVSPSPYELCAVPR

[8] = molecular target: CYP2C9 (Homo sapiens, UniProt P11712); assay: Inhibition of CYP2C9 (unknown origin) assessed as remaining enzyme activity at 10 uM; assay type: ADME; conditions: read-out: Activity
Chain of CYP2C9 (P11712 whole entry): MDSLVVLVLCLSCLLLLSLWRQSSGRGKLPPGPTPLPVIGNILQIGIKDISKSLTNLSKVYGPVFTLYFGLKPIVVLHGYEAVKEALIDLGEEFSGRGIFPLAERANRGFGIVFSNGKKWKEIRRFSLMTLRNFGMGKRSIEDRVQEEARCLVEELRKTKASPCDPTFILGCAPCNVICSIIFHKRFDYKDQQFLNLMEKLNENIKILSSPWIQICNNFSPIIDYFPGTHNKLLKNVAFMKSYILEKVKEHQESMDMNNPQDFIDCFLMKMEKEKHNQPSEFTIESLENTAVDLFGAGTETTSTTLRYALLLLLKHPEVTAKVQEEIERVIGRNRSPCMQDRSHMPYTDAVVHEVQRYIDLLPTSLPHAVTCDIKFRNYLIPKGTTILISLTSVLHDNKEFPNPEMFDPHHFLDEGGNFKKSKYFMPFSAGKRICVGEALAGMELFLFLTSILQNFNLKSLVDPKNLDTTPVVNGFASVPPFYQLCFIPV

[9] = molecular target: CYP3A4 (Homo sapiens, UniProt P08684); assay: Inhibition of CYP3A4 (unknown origin) assessed as remaining enzyme activity at 10 uM; assay type: ADME; conditions: read-out: Activity
Chain of CYP3A4 (P08684 whole entry): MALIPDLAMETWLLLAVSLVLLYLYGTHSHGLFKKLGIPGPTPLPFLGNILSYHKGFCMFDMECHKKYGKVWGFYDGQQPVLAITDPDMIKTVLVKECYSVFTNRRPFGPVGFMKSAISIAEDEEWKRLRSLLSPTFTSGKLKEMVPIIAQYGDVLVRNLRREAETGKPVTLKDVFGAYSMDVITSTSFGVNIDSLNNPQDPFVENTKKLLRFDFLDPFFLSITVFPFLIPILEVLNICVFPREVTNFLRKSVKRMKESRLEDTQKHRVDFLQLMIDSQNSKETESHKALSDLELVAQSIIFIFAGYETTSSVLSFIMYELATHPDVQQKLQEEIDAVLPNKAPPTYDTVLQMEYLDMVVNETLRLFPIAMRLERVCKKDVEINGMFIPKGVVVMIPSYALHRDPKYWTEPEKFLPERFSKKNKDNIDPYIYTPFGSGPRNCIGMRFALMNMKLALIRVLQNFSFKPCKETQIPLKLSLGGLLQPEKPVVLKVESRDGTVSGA

[10] = molecular target: CYP2C19 (Homo sapiens, UniProt P33261); assay: Inhibition of CYP2C19 (unknown origin) assessed as remaining enzyme activity at 10 uM; assay type: ADME; conditions: read-out: Activity
Chain of CYP2C19 (P33261 whole entry): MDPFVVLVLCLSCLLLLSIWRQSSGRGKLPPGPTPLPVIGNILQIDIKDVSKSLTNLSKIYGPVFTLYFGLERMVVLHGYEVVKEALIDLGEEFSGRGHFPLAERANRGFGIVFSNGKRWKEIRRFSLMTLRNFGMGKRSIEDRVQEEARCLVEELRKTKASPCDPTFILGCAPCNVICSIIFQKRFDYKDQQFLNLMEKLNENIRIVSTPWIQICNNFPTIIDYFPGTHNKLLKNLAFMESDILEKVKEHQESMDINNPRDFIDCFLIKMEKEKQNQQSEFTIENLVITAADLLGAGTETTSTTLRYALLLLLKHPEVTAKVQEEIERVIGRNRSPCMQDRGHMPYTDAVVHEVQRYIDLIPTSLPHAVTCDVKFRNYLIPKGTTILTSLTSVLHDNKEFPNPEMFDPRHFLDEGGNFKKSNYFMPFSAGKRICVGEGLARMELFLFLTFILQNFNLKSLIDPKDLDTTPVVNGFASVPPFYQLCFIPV

[11] = molecular target: T1, CYP1A2 (Homo sapiens, UniProt P05177); assay: Inhibition of CYP1A2 (unknown origin) assessed as remaining enzyme activity at 10 uM; assay type: ADME; conditions: read-out: Activity
T1 sequence (P05177 whole entry): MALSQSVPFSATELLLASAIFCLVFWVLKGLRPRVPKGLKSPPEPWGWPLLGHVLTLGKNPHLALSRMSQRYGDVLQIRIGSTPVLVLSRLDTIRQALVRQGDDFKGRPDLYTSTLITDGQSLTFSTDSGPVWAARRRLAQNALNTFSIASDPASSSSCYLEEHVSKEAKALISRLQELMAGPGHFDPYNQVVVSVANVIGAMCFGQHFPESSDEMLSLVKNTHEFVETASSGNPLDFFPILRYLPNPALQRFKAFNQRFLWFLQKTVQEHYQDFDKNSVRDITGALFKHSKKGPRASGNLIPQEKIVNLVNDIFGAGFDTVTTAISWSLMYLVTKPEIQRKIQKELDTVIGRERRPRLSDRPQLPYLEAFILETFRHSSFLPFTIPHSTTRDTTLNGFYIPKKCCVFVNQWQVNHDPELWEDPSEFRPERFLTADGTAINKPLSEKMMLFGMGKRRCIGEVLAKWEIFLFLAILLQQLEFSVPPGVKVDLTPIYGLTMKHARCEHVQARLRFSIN

[12] = molecular target: Voltage-gated inwardly rectifying potassium channel KCNH2 (Homo sapiens, UniProt Q12809); assay: Inhibition of human ERG

Row | Structure (SMILES) | inhibition [1] [%] | inhibition [2] [%] | inhibition [3] [%] | inhibition [4] [%] | Activity [5] | Activity [6] | activity at 10 µM [7] [%] | activity at 10 µM [8] [%] | activity at 10 µM [9] [%] | activity at 10 µM [10] [%] | activity at 10 µM [11] [%] | IC50 [12] [µM]
1 | Cc1c(-c2ccc(Cl)nc2)noc1-c1ccc2c(c1)CN(C(C)C)C2=O | 56.9 | 47.1 | 26.3 | 22.2 | – | – | – | – | – | – | – | –
2 | COc1ccc(-c2noc(-c3ccc4c(c3)CN(C(C)C)C4=O)c2C)cn1 | 46.5 | 49.1 | 30.8 | 33.5 | – | – | – | – | – | – | – | –
3 | CC(C)N1Cc2cc(-c3cc(-c4cccnc4F)no3)ccc2C1=O | 42.3 | 23.4 | – | – | – | – | – | – | – | – | – | –
4 | Cc1c(-c2ccc3c(c2)CN(C(C)C)C3=O)nnn1-c1ccc(F)cc1F | 93.1 | 92.5 | – | – | Active | Active | – | – | – | – | – | –
5 | CC(C)N1Cc2cc(-c3cc(-c4ccc(Cl)nc4)no3)ccc2C1=O | 47.1 | 45.4 | 36.5 | 22.7 | Active | Active | 91.3 | 104 | 94.5 | 56.6 | 92.6 | 40
6 | CC(C)N1C(=O)c2ccc(-c3cc(-c4ccc(F)cc4)no3)cc21 | 50.4 | 12.8 | 34 | 1.82 | – | – | – | – | – | – | – | –
7 | COc1ccc(-c2noc(-c3ccc4c(c3)N(C(C)C)C4=O)c2C)cc1 | 13.7 | 9.68 | – | – | – | – | – | – | – | – | – | –
8 | Cc1c(-c2ccc(Cl)cc2)noc1-c1ccc2c(c1)N(C(C)C)C2=O | 49.1 | 20.3 | 28.7 | 9.46 | – | – | – | – | – | – | – | –
9 | COc1ccc(-c2cc(-c3ccc4c(c3)CN(C(C)C)C4=O)on2)cc1 | 35.1 | 41 | 15.1 | 15.4 | – | – | – | – | – | – | – | –
10 | CC(C)N1C(=O)c2ccc(-c3cc(-c4ccc(F)cc4F)no3)cc21 | 17.3 | 11.7 | – | – | – | – | – | – | – | – | – | –
11 | COc1ccc(-c2cc(-c3ccc4c(c3)CN(C(C)C)C4=O)on2)cn1 | 59.6 | 16.6 | 29.2 | 5.29 | Active | Active | 87.5 | 91.8 | 95.6 | 85.9 | 90.7 | 12
12 | Cc1ccc(-c2cc(-c3ccc4c(c3)CN(C(C)C)C4=O)on2)cc1 | 25.1 | 37.4 | 15 | 21.8 | – | – | – | – | – | – | – | –
13 | CC(C)N1Cc2cc(-c3cc(-c4ccccc4F)no3)ccc2C1=O | 88.6 | 56.3 | 22.5 | 21.9 | – | – | 45.8 | 39.8 | 107 | 58.4 | 42.5 | –
14 | Cc1c(-c2ccc(F)cc2)noc1-c1ccc2c(c1)CN(C(C)C)C2=O | 62.8 | 38.4 | 18.7 | 8.16 | – | – | – | – | – | – | – | –
15 | CC(C)N1C(=O)c2ccc(-c3cc(-c4ccc(Cl)cc4)no3)cc21 | 33.9 | 16.4 | 10.3 | 12.2 | – | – | – | – | – | – | – | –
16 | COc1ccc(-c2cc(-c3ccc4c(c3)N(C(C)C)C4=O)on2)cc1 | 2.44 | 11.3 | 15.9 | 13.6 | – | – | – | – | – | – | – | –
17 | CC(C)N1Cc2cc(-c3cc(-c4ccc(F)cc4F)no3)ccc2C1=O | 36.5 | 39.8 | 13.4 | 17.7 | – | – | – | – | – | – | – | –
18 | Cc1ccc(-c2cc(-c3ccc4c(c3)CN(C(C)C)C4=O)on2)cn1 | 62.6 | 4.53 | 34.4 | 14 | – | – | – | – | – | – | – | –
19 | Cc1c(-c2ccc(Cl)cc2)noc1-c1ccc2c(c1)CN(C(C)C)C2=O | 61.6 | 30.7 | 23.4 | 11.7 | – | – | – | – | – | – | – | –
20 | CC(C)N1C(=O)c2ccc(-c3cc(-c4ccccc4F)no3)cc21 | 91.1 | 68 | 18.3 | 14.9 | inactive | inactive | 57.1 | 32 | 120 | 33.2 | 98.7 | –
21 | Cc1c(-c2ccc(F)cc2F)noc1-c1ccc2c(c1)CN(C(C)C)C2=O | 87.6 | 31.9 | 26.3 | 7.95 | – | – | 104 | 2.55 | 98 | 59.2 | 89.6 | –
22 | CC(C)N1C(=O)c2ccc(-c3cc(-c4ccc(Cl)nc4)no3)cc21 | 7.77 | 12.3 | 10.1 | 16.1 | – | – | – | – | – | – | – | –
23 | NCC1(CC(=O)O)CCCCC1 | – | – | – | – | Active | Active | – | – | – | – | – | –
